Laboratory results: patent publication US20030096004A1, “(S,S'),(S,R')-amphetaminil, compositions and uses thereof” (priority 2001, published 2003)

Columns and labels:
[1] = tested on: normal rats; test: Locomotor activity in normal rats (grid line crossings); type: in vivo, rat; conditions: for locomotor activity (overall effect): male Wistar rats, all doses tested; for cumulative locomotor activity: vs vehicle
Protocol: (§1) Male Wistar rats (n=4 per group) were randomly allocated to each drug treatment group. Drugs were administered such that, with the exception of fusaric acid, each rat in each group received all doses of the drug or vehicle in a semi random manner according to the modified Latin Square in Table 1. Compounds were administered at the doses: 0.1, 1 and 10 mg/kg s.c. in 100% DMS0 (vehicle). Amphetamine was administered at 0.1, 1 and 5 mg/kg s.c. in saline (vehicle). Fusaric acid was administered at 20, 40 and 80 mg/kg s.c. in saline (vehicle). Rats received each dose of fusaric acid (20, 40 and 80 mg/kg), doses given in order, starting with vehicle. A one-week interval was provided between doses.
(§2) At the start of the experiment, rats were placed in standard perspex behaviour boxes with a visible grid on the floor to allow determination of locomotor activity. The animals were allowed to acclimatise to their environment for 1 hour prior to drug/saline administration. Following drug administration animals were returned to the behaviour cages and locomotor activity was assessed for a further 5 hours or until baseline (zero activity for 30 minutes) was achieved, whichever was sooner. Locomotor activity was assessed by videoing the rats throughout the experiment, and counting the number of times a rat crossed a grid line during a period of 5 minutes every 10 minutes. Throughout the experiment animals were scored for stereotyped behaviours for 15 seconds every 10 minutes by a trained observer using the scoring methods described in Table 2.
The mean and standard error for locomotor activity over 10 minutes for each rat at each time point was determined. […] Cumulative activity, during the 300 min was also calculated, and the effect of dose of drug was analyzed by one-way repeated measures ANOVA followed by Dunnett's t-test (GraphPad Prizm). Data was also analysed for significant fit to a sigmoidal-shaped log dose-response curve using non-linear regression analysis (GraphPad Prizm).

[2] = tested on: normal rats; test: Induction of stereotyped behaviour in normal rats (stereotypy scoring); type: in vivo, rat; conditions: for duration of stereotypy: 300 min experiment; for stereotypy (overall effect): male Wistar rats, all doses tested; for stereotypy (overall effect) / onset of stereotypy: s.c.; for onset of stereotypy: 10 mg/kg stated for (S,S′),(S,R′)-amphetaminil; for differences in overall stereotypy between groups: total stereotypy score, 0.1-10 mg/kg s.c. vs vehicle
Protocol: as §1, §2
The mean and standard error for stereotypy activity for 15 seconds every 10 minutes for each rat at each time point was determined. […] Cumulative activity during the 300 min was also calculated, and the effect of dose of drug was analyzed by Kruskall Wallis one-way ANOVA (GraphPad Prizm). Data was also analysed for significant fit to a sigmoidal-shaped log dose-response curve using non-linear regression analysis (GraphPad Prizm)

[3] = tested on: children with hyperkinetic syndrome; conditions: Pacit et al., 1996; cited from earlier work

Structure (SMILES)	locomotor activity (overall effect) ([1]; s.c.)	duration of stereotypy ([2]; 10 mg/kg s.c.)	stereotypy (overall effect) [2]	onset of stereotypy [2]	differences in overall stereotypy between groups [2]	efficacy in the treatment of ADHD in children [3]	share of the racemate's pharmacological activity, cumulative locomotor activity (FIGS. 3B and 4B) ([1]; 1 mg/kg)	cumulative locomotor activity ([1]; 10 mg/kg s.c.)	onset of locomotor activity after administration ([1]; s.c.)	peak of locomotor activity ([1]; s.c.)	share of the racemate's pharmacological activity, total stereotypy score (FIGS. 7B and 8B) ([2]; 1 mg/kg)	peak of stereotypy ([2]; 10 mg/kg s.c.)	onset of locomotor activity ([1]; 5 mg/kg s.c.)	time of maximum effect on locomotor activity after administration ([1]; 5 mg/kg s.c.)	cumulative locomotor activity ([1]; 5 mg/kg s.c., over the duration of the experiment)	overall stereotypy during the 300 min duration of the experiment ([2]; 5 mg/kg s.c.)
CC(Cc1ccccc1)NC(C#N)c1ccccc1 (racemic) [Racemic amphetaminil, alpha-[(1-methyl-2-phenylethyl)amino]benzeneacetonitrile]	increased locomotor activity only at the highest dose of 10 mg/kg	sustained for the duration of the experiment	increased stereotypy in a log dose-related manner	rapid	did not reach statistical significance	efficacy	–	–	–	–	–	–	–	–	–	–
C[C@@H](Cc1ccccc1)NC(C#N)c1ccccc1 (stereo partly drawn) [(S,S′),(S,R′)-Amphetaminil, alpha-[(1S-Methyl-2-phenylethyl)amino]benzeneacetonitrile]	increased locomotor activity in a dose-related manner	sustained during the 300 min duration of the experiment	increased stereotypy in a log dose-related manner	rapid	did not reach statistical significance	–	responsible for nearly all of the pharmacological activity of the racemate	significant effect	≤ 30 min	60 min	responsible for nearly all of the pharmacological activity of the racemate	100 min	–	–	–	–
CC(N)Cc1ccccc1 (centres unmarked) [Amphetamine]	dose-related increase in locomotor activity	–	log dose-related increase stereotypy	–	–	–	–	–	–	–	–	–	rapid	30 min	significantly increased	tended to increase
